According to a melting point compilation (Tetko et al.):

Row | SMILES | melting point [°C]
1 | CC(C)(C)OC(=O)Oc1ccc(N)cc1 | 112 to 114
2 | CN(C)c1ccc(N2C(=O)CSC2=S)cc1 | 138 to 140
3 | NCC(O)c1ccc(Cl)c(F)c1 (configuration not stated) | 54 to 56
4 | COc1ccc(C(CN)NC(=O)OC(C)(C)C)cc1 (configuration not stated) | 90 to 92
5 | Cc1ccn(-c2cc(CO)ccn2)n1 | 92 to 94
6 | Cc1cc(Br)cc(C=O)c1O | 68 to 70
7 | O=C(O)C(=Cc1cccs1)n1nnnc1-c1ccccc1 | 204 to 206
8 | O=C(O)c1cc(-n2ccnc2)ccn1 | 194 to 196
9 | CC1CCN(CC(O)CN)CC1 (configuration not stated) | 63 to 65
10 | O=C(O)c1cn(-c2ccc(Br)cc2C(F)(F)F)nn1 | 139 to 141
11 | Cc1cc(C)n2nc(C)c(C(=O)O)c2n1 | 226 to 228
12 | Oc1ccc(Oc2ccc(C(F)(F)F)cn2)cc1 | 90 to 92
13 | N#Cc1ccc(OCc2ccc(C(=O)O)o2)cc1 | 203 to 205
14 | CC(=O)c1ccc(-c2ccc(Cl)cc2)s1 | 120 to 122
15 | CS(=O)(=O)c1cc(N)cc(C(=O)O)c1 | 257 to 259
16 | Nc1c(Br)c(=O)[nH]c(=O)n1Cc1ccccc1 | 235 to 237
17 | Cc1cc2ccccc2nc1Br | 94 to 96
18 | CC(NC(=O)Oc1ccccc1)C(=O)O (configuration not stated) | 122 to 124
19 | O=C(O)CCC(=O)c1cccc(F)c1 | 94 to 96

Row | SMILES | melting point [°C]
20 | CC(C)n1c(N)nnc1S | 189 to 191
21 | O=C(O)c1ccc(OCC(F)(F)C(F)F)nc1 | 143 to 145
22 | Nc1ccc(S(=O)(=O)NC2CC2)cn1 | 169 to 171
23 | CC1(c2cccc(C(N)=O)c2)NC(=O)NC1=O (configuration not stated) | 225 to 227
24 | NC(=O)CNCC(N)=O | 129 to 131
25 | CC1NC(=O)c2ccccc2NC1=O (configuration not stated) | 337 to 339
26 | O=C(O)COc1cccc(C(F)(F)F)c1 | 85 to 87
27 | Cc1ccc(-n2c(C)c[nH]c2=O)cc1 | 195 to 197
28 | O=C(O)C=Cc1csc(Br)c1 | 187 to 189
29 | Cc1csc(N2CCCC(C(=O)O)C2)n1 (configuration not stated) | 147 to 149
30 | Cc1ccc(-n2c(S)nnc2-c2ccc(Cl)cc2)cc1 | 141 to 143
31 | Cc1cc(NS(C)(=O)=O)ccc1Br | 102 to 104
32 | CN(C)S(=O)(=O)c1ccnc(N)c1 | 148 to 150
33 | CC(C)Nc1ccc(S(C)(=O)=O)cc1 | 111 to 113
34 | NCc1ccnc(NC2CC2)c1 | 39 to 41
35 | O=C(O)CCOc1ccc(Br)cc1F | 91 to 93
36 | NC(=O)C1CC(C(=O)O)=NN1c1ccccc1 (configuration not stated) | 209 to 211
37 | Cc1noc2nc(-c3cc(F)ccc3F)cc(C(=O)O)c12 | 237 to 239
38 | CC(Cl)C(=O)c1c[nH]c2ccccc12 (configuration not stated) | 190 to 192

Row | SMILES | melting point [°C]
39 | Ic1ccc(OCc2cccnc2)cc1 | 72 to 74
40 | C=CCNc1nnc(S)s1 | 133 to 135
41 | O=C(O)CNC(=O)Nc1ccc(Br)cc1 | 192 to 194
42 | NNC(=S)NCC1CCC1 | 104 to 106
43 | CCOC(=O)C(=O)c1nc2ccccc2n1C | 116 to 118
44 | CC(=O)c1c(O)cc(F)cc1F | 45 to 47
45 | N#CCc1ccc([N+](=O)[O-])cn1 | 62 to 64
46 | CC(=Cc1ccc(Br)o1)[N+](=O)[O-] | 89 to 91
47 | CC(C)Oc1ccc(C(=O)NN)cc1 | 117 to 119
48 | O=C1CCc2cc(Br)c(S(=O)(=O)Cl)cc2N1 | 224 to 226
49 | O=C(O)C1(c2ccc(Br)cc2)CC1 | 155 to 157
50 | Cc1cc(NC(=O)C2CCCC2)sc1C(=O)O | 174 to 176
51 | Cc1nn(C)c(C)c1CC(=O)O | 223 to 225
52 | CC(C)(Cc1ccccc1)NC(=O)OC(C)(C)C | 51 to 53
53 | O=C(O)c1cnoc1-c1ccc(Cl)cc1 | 205 to 207
54 | CC1(c2ccc(OC(F)F)cc2)NC(=O)NC1=O (configuration not stated) | 141 to 143
55 | CC1CCc2c(sc(N)c2C(N)=O)C1 (configuration not stated) | 188 to 190
56 | Cc1cc2ncc(SC(=O)N(C)C)cn2n1 | 144 to 146
57 | Cc1cc(O)nc(-c2ccccn2)n1 | 114 to 116
